Data published in paper PMC2765658 (Chemical communications (Cambridge, England), 2009).
Square brackets hold non-standard residues; d marks the D form. Peptide text beside a SMILES is read from it. Aib = CC(C)(N)C(=O)O

Experiment: Thermal melting followed by CD ellipticity
Assay type: physicochemical
Conditions: CD ellipticity followed over 20 - 85 °C; 100 μM peptide in 20% TFE/H2O

CC(=O)NCCCC[C@H](NC(=O)[C@@H](NC(C)=O)C(C)C)C(=O)N[C@@H](CC(C)C)C(=O)NC(C)(C)C(=O)N[C@H](C(=O)N[C@@H](CCCCNC(C)=O)C(=O)N[C@@H](CC(C)C)C(N)=O)C(C)C [compound 17, Ac-Val-Lys(Ac)-Leu-Aib-Val-Lys(Ac)-Leu-NH2] (Ac-VK(Ac)L[Aib]VK(Ac)L-NH2)
thermal melting point (Tm): 48 °C
